Data: US4755510A, “Novel anticonvulsive tetrahydro-1,2,4-oxadiazine-5-thion derivatives and use” (Richter Gedeon Vegyeszeti Gyar R.T., priority 1984, dated 1988)
Where two headings read alike, the source gives them in different places.

What was measured:
Male CFLP (LATI) mice [1] = test: Maximal electroshock (MES), protection from tonic extensoric spasm of the lower limbs; type: in vivo; settings: Mus musculus, po; for ED50: read-out: Anticonvulsive activity MES ED50; for inhibition at 30 mg/kg: read-out: MES inhibition (%)
Method: (§1) The compound to be tested was suspended in 2 percent aqueous Tween 80 (polyoxyethylene sorbitane monolaurate) solution and it was orally administered to the animals through a bougie in a dose of 30 mg/kg when the anticonvulsive activity was tested, while in a dose of 120 mg/kg when the neurotoxic activity was examined. The effect triggered was measured after 1 hour of the administration. Male CFLP (LATI) mice having a weight of 18 to 22 g were used in the tests.
The animals were shocked with a corneal electrode (20 mA, 0.2 sec.) (H. Schachs Elektronik, Marchs, Augstatten, Germany, "schockreizgerat" typ. 207) according to the method of E. A. Swinyard et al. (J. Pharmacol. Exp. Ther. 106, 318 (1952)]. 100% of the control animals responded to the stimulus by the tonic extensoric spasm of the lower limbs. The lack of these occurences was attributed to the protection obtained by the treatment.
MES: maximal electroshock

Male CFLP (LATI) mice [2] = test: Spasm stimulated by Pentetrazole (PTT); type: in vivo; settings: po; for ED50: Mus musculus, read-out: Anticonvulsive activity PTT TE (tonic extensoric spasm) ED50
Method: as §1
According to the method of G. M. Everett and R. K. Richard [J. Pharmacol. Exp. Ther., 81, 402, (1944)] the test animals were treated with 125 mg/kg of Pentetrazole (pentamethylene tetrazole) after 1 hour of the administration of the compound to be tested. The lack of the clonic spasm (KI) and the tonic extensoric spasm of the lower limbs (TE) was attributed to the protection obtained as a result of the treatment.
PTT: inhibition of the spasm stimulated by pentetrazole
TE: tonic extensoric spasm

Acute toxicity (LD50) = type: in vivo; settings: mouse, in vivo, po; one dose, observation through 14 days; probit analysis; read-out: Acute tox. LD50
Method: as §1
(§2) The toxicity of the compounds was examined after the administration of 1000 mg/kg of the test compound in one dose by an observation through 14 days. The LD50 value (50 percentile lethal dose) was calculated by probite analysis on the basis of the percentile ratio of the animals died within the 14 days.

Male CFLP (LATI) mice [3] = test: Spasm stimulated by strychnine (Str); type: in vivo; settings: Mus musculus, po, 1 h, read-out: Anticonvulsive activity Str (spasm stimulated by strychnine) ED50
Method: as §1
According to the method of T. L. Kerley et al. [J. Pharmacol. Exp. Ther. 132, 360 (1961)] the test animals were i. p. treated with 2.5 mg/kg of strychnine after 1 hour of the administration of the active ingredient to be tested.
Str: inhibition of the spasm stimulated by strychnine

[4] = Neurotoxicity (muscle uncoordination), rotating bar (FR); design: species or system mice (male CFLP (LATI)); settings: mouse, in vivo, po
Method: as §1
The change of the coordinated muscle motion was examined on a rotating bar according to the method of C. J. Carr [J. Pharmacol. Exp. Ther., 121, 354 (1957)] (diameter: 20 mm, number of revolutions: 12/minute). The trained control animals could stay on the bar for 120 seconds. After 1 hour of the administration of the test compound, it was examined which percent of the animals fell down from the rotating bar within 120 seconds.

Male CFLP (LATI) mice [5] = test: Acute toxicity (LD50); type: in vivo; settings: one dose, observation through 14 days; probit analysis
Method: as §1, §2

Structure (SMILES) | ED50 (Male CFLP (LATI) mice [1]; 1 h) | ED50 (Male CFLP (LATI) mice [2]; 1 h) | LD50 at 336 h (Acute toxicity (LD50)) | Anticonvulsive activity PTT K1 (clonic spasm) ED50 (Male CFLP (LATI) mice [2]; 1 h) | other results
CC(=O)N1O[C@H](C)C(=S)N[C@@H]1c1ccccc1 (relative stereo) [A] | 11.9 mg/kg | 6.1 mg/kg | 1000 mg/kg |  | 
CC(=O)N1O[C@H](C)C(=S)N[C@@H]1c1ccccc1C (relative stereo) [C, 2-Acetyl-3-(2-methylphenyl)-6-methyl-tetrahydro-1,2,4-oxadiazine-5-thion] | 10 mg/kg | 4.3 mg/kg | 1000 mg/kg |  | ED50 (Male CFLP (LATI) mice [3]): 25.6 mg/kg
CC(=O)N1O[C@H](C)C(=S)N[C@@H]1c1ccc(N(C)C)cc1 (relative stereo) [D] | 30 mg/kg | 9.9 mg/kg | 1000 mg/kg | 0 mg/kg | 
CC[C@H]1ON(C(C)=O)[C@@H](c2ccccc2)NC1=S (relative stereo) [F] |  | 15.4 mg/kg | 1000 mg/kg | 0 mg/kg | inhibition at 30 mg/kg (Male CFLP (LATI) mice [1]; 1 h): 40%
CC(=O)N1O[C@H](C)C(=S)N[C@@H]1c1ccccc1 [B] | 16.1 mg/kg | 12.6 mg/kg | 1000 mg/kg |  | 
O=C1NC(=O)C(c2ccccc2)(c2ccccc2)N1 [Compound K1, Diphenyl hydantoin, reference compound] |  |  |  |  | ED50 (Male CFLP (LATI) mice [1]; 1 hour after administration, corneal electrode 20 mA, 0.2 sec): 8.3 mg/kg; ED50 (Male CFLP (LATI) mice [2]; Pentetrazole 125 mg/kg 1 hour after administration, tonic extensoric spasm): 9.9 mg/kg; TD50 at 1 h [4]: 47.7 mg/kg; Acute tox. LD50 (Male CFLP (LATI) mice [5]): 278 mg/kg
CC(=O)N1OCC(=O)NC1c1ccccc1 (centres unmarked) [Compound K2, 2-Acetyl-3-phenyl-tetrahydro-1,2,4-oxadiazine-5-one, reference compound] | 22.7 mg/kg | 13.4 mg/kg |  |  | TD50 at 1 h ([4]; rotating bar 12/minute, 120 seconds, 1 hour after administration, read-out: Neurotox. FR (rotating bar) ED50): 130 mg/kg
CC(=O)N1OCC(=S)NC1c1ccccc1 (centres unmarked) [E, 2-Acetyl-3-phenyl-tetrahydro-1,2,4-oxadiazine-5-thion] |  | 16.6 mg/kg | 1000 mg/kg | 0 mg/kg | inhibition at 30 mg/kg (Male CFLP (LATI) mice [1]; 1 h): 10%
